Where two headings read alike, the source gives them in different places.
Assays:
[1] = Metabolic stability in rat hepatocytes; format: in vitro ADME; details: male, Wistar, freshly isolated rat hepatocytes in suspension, 10^6 cells/ml, analysed over 24 h, read-out: T½ (converted)
From the text: Hepatocytes from adult male Wistar rats (IFFA Credo, L'Arbresle, France) were isolated by an in situ liver perfusion using collagenase (purchased from Sigma (St. Louis, Mo., U.S.A), according to a procedure described by Seglen (Preparation of isolated rat liver cell, Methods Cell Biol. 13, 29–83, 1976) and modified by Williams et al. (Rat hepatocyte primary culture. III. Improved dissociation and attachment techniques and the enhancement of survival by culture medium, in vitro 13: 809–817, 1977). After estimation of cell viability by the peripheral refractoriness of intact cells in phase contrast microscopy and the trypan blue test, freshly isolated hepatocytes were washed in basal William's medium E (WME) supplemented with 10% (v/v) fetal calf serum, 70 μM cortisol, 2 mM L-glutamine, 10 mM HEPES buffer, and 4 mM NaOH. […]
Each substance of each concentration will be analysed 10 times during 24 h (1 h, 2 h, 4 h, 6 h, 8 h, 10 h, 12 h, 16 h, 20 h, 24 h).

[2] = literature values; cited from earlier work

## CC[C@H](C)[C@H](NC(=O)[C@H]([C@@H](C)CC)N(CC)CC)C(=O)N1CCC[C@H]1C(N)=O [N,N-Diethyl-Ile-Ile-ProNH2, N,N-diethyl-isoleucyl-isoleucyl-prolineamide]
PAMPA
  PAMPA classification, predicted absorption after peroral application: medium to highly absorbed

## CCNC(=O)[C@@H]1CCCN1C(=O)[C@H](Cc1ccccc1)NC(=O)[C@H]([C@@H](C)CC)N(CC)CC [N,N-Diethyl-Ile-Phe-ProNHEt, N,N-diethyl-isoleucyl-phenylalanyl-L-proline ethylamide]
PAMPA
  PAMPA classification, predicted absorption after peroral application: medium to highly absorbed

## thyreoliberin [TRH, reference compound]
500 μM in Tris-buffer pH 7,4, diffusion time 16 h
  Pampa Flux (%) Mean ± SEM: <10%
Classification by flux rate
  PAMPA classification, predicted absorption after peroral application: weakly absorbed

## CC[C@H](C)[C@H](NC(=O)CN(CC)CC)C(=O)N1CCC[C@H]1C(N)=O [N,N-Diethyl-Gly-Ile-ProNH2]
PAMPA
  PAMPA classification, predicted absorption after peroral application: medium to highly absorbed

## CC[C@H](C)[C@H](NC(C)C)C(=O)N[C@H](C(=O)N1CCC[C@H]1C(N)=O)[C@@H](C)CC [N-Isopropyl-Ile-Ile-ProNH2]
PAMPA
  PAMPA classification, predicted absorption after peroral application: medium to highly absorbed
[1]
  half-life: 2.6 h

## CC[N+](C)(C)Cc1ccccc1Br [Bretylium, reference compound]
PAMPA, 16 h, 500 μM, pH 7
  Pampa Flux (%) Mean ± SEM: 0%

## C[C@]12CCC(=O)C=C1CC[C@@H]1[C@@H]2[C@@H](O)C[C@@]2(C)[C@H]1CC[C@]2(O)C(=O)CO [Hydrocortisone]
[2]
  flux rates published by Kansy et al.: 52%

## O=c1ccc2ccccc2o1 [Coumarin, reference compound]
PAMPA, 16 h, 500 μM, pH 7
  Pampa Flux (%) Mean ± SEM: 72 ± 2%
[2]
  flux rates published by Kansy et al.: 66%

Reference: patent publication US7129213B2, “Tripeptides and tripeptide derivatives for the treatment of neurodegenerative diseases” (Neurotell AG, priority 2002, dated 2006)
